The source made the active and inactive calls.
Tests used:
HT-1080 = assay: HT1080 cell viability loss – fluorescence readout (AID 620); type: functional, cell-based; conditions: Homo sapiens
[1] = target: Protein kinase C gamma type (Homo sapiens, UniProt P05129); type: functional
[2] = target: STE20-like serine/threonine-protein kinase (Homo sapiens, UniProt Q9H2G2); type: functional
[3] = target: Cell division cycle 7-related protein kinase (Homo sapiens, UniProt O00311); type: functional;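 note: value obtained from a kinome-wide kinase panel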
[4] = target: T1, Tyrosine-protein phosphatase non-receptor type 7 (Homo sapiens, UniProt P35236); type: functional
T1 sequence (P35236 whole entry): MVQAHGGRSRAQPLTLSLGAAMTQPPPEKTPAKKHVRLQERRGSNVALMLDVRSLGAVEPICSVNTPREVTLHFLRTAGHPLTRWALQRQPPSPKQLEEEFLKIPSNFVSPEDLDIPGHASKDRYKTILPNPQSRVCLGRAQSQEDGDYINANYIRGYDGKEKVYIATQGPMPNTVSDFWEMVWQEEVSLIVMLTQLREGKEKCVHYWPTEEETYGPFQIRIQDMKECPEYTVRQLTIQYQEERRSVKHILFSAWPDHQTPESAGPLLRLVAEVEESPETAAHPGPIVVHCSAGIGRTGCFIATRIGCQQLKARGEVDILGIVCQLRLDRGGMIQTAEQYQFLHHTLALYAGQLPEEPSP

[5] = loss of viability in HepG2 cells – cell-based, CellTiter-Glo, cherry-picked, cytotoxicity control for Shn3 inhibitor project, dose response (AID 624134); type: functional
[6] = target: Tyrosine-protein phosphatase non-receptor type 22 (Homo sapiens, UniProt Q9Y2R2); type: functional;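 note: confirmatory dose-response retest of primary uHTS hits for inhibition of LYP phosphatase, measured by a fluorescence intensity read-out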
[7] = NIH-3T3 fibroblast cytotoxicity, dose response, cytotoxicity control, cell-based, fluorescence, Alamar Blue, secondary assay (AID 2327); type: functional;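 note: NIH-3T3 mouse fibroblasts cultured with fluconazole at 8 µg/mL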
[8] = target: T2, Dual specificity protein phosphatase 3 (Homo sapiens, UniProt P51452); assay: VHR1 phosphatase inhibitors, primary screen, biochemical, absorbance, uHTS (AID 1654)
Protein RecA = target: T3, Protein RecA (Mycobacterium tuberculosis, UniProt P9WHJ3); assay: RecA Intein Measured in Biochemical System Using Plate Reader - 2047-02_Inhibitor_Dose_DryPowder_Activity. [Related pubchem assays (depositor defined):AID2223]; design: species or system Mycobacterium tuberculosis H37Rv
T3 sequence (P9WHJ3 whole entry): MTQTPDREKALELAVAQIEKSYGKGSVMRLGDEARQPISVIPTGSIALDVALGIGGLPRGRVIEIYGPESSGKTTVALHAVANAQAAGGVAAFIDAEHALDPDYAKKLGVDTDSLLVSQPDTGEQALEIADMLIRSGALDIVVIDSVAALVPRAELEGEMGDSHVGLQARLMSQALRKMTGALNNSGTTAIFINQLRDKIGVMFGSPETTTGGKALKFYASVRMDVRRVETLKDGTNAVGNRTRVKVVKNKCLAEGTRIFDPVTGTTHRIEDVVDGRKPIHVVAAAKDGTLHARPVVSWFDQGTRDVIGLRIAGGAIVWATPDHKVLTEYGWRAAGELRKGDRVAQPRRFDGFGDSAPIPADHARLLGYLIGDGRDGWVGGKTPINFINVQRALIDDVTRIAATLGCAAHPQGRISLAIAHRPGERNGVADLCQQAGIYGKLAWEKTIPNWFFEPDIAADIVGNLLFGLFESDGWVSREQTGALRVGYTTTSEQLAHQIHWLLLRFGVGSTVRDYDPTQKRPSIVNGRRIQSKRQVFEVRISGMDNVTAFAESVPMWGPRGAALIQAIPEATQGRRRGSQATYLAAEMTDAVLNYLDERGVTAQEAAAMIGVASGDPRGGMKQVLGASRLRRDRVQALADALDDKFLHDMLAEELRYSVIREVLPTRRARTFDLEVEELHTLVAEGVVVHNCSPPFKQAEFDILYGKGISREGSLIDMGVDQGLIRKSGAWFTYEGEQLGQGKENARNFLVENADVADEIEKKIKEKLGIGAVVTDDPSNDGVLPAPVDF

[9] = target: T2, Dual specificity protein phosphatase 3; assay: VHR1 phosphatase inhibitors, biochemical (AID 1878)
[10] = CMV-driven luciferase expression suppression in HEK293 – cell-based, luminescence, dry powder, counter-screen for Pax8 inhibitor project, dose response (AID 743020); type: functional
Cysteine protease ATG4B = target: T4, Cysteine protease ATG4B (Homo sapiens, UniProt Q9Y4P1); type: functional;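 note: Fluorescence-based dose-response confirmation assay measuring inhibition of ATG4B activity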
T4 sequence (Q9Y4P1 whole entry): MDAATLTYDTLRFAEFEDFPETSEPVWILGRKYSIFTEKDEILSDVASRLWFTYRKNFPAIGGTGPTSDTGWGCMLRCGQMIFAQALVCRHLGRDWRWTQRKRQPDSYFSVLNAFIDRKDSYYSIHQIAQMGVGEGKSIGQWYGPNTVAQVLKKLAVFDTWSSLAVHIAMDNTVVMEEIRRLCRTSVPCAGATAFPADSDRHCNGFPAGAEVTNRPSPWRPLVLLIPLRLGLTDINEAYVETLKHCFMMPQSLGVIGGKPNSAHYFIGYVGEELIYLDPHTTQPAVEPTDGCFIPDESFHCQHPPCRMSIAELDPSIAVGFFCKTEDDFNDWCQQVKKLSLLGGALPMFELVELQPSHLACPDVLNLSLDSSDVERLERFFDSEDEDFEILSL

T2 sequence (P51452 whole entry): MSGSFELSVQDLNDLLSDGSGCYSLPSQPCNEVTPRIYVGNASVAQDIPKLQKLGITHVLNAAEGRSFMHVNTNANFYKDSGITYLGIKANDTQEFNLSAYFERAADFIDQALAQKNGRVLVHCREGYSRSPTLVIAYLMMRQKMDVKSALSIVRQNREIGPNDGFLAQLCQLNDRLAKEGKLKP
Chain of Tyrosine-protein phosphatase non-receptor type 22 (Q9Y2R2 whole entry): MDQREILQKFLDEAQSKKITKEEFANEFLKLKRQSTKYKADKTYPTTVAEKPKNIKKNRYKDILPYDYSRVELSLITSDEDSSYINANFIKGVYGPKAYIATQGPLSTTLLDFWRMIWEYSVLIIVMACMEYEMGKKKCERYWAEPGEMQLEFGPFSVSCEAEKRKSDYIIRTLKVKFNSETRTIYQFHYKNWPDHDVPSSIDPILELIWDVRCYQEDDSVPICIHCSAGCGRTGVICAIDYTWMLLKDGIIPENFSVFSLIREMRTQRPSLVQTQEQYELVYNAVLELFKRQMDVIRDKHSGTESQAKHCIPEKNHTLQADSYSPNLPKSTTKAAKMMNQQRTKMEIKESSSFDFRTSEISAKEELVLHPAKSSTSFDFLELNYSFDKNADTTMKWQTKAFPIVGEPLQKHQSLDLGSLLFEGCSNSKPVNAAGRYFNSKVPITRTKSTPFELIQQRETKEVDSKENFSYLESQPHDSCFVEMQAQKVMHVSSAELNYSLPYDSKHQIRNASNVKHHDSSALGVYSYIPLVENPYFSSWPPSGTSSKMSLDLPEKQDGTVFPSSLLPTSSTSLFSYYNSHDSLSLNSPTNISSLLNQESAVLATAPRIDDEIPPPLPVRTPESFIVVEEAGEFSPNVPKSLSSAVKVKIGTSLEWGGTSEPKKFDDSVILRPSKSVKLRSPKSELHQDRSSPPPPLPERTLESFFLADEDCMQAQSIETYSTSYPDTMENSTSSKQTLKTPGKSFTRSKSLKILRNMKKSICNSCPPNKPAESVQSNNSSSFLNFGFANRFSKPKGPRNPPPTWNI
Chain of Cell division cycle 7-related protein kinase (O00311 whole entry): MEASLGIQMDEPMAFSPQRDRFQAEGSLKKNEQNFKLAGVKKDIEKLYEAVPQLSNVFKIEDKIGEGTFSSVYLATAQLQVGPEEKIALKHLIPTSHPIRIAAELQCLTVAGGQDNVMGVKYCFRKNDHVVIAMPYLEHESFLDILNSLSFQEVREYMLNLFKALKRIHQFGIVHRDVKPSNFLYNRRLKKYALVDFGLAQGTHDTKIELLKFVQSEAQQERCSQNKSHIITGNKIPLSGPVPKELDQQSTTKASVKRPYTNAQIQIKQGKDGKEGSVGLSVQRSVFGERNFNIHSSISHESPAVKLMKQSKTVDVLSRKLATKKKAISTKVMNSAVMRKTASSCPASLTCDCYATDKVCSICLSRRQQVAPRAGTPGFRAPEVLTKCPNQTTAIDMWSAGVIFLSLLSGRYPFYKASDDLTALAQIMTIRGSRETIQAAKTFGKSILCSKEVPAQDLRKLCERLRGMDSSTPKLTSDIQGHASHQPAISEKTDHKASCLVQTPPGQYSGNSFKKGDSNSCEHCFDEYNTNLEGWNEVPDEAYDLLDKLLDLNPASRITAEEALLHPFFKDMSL
Chain of STE20-like serine/threonine-protein kinase (Q9H2G2 whole entry): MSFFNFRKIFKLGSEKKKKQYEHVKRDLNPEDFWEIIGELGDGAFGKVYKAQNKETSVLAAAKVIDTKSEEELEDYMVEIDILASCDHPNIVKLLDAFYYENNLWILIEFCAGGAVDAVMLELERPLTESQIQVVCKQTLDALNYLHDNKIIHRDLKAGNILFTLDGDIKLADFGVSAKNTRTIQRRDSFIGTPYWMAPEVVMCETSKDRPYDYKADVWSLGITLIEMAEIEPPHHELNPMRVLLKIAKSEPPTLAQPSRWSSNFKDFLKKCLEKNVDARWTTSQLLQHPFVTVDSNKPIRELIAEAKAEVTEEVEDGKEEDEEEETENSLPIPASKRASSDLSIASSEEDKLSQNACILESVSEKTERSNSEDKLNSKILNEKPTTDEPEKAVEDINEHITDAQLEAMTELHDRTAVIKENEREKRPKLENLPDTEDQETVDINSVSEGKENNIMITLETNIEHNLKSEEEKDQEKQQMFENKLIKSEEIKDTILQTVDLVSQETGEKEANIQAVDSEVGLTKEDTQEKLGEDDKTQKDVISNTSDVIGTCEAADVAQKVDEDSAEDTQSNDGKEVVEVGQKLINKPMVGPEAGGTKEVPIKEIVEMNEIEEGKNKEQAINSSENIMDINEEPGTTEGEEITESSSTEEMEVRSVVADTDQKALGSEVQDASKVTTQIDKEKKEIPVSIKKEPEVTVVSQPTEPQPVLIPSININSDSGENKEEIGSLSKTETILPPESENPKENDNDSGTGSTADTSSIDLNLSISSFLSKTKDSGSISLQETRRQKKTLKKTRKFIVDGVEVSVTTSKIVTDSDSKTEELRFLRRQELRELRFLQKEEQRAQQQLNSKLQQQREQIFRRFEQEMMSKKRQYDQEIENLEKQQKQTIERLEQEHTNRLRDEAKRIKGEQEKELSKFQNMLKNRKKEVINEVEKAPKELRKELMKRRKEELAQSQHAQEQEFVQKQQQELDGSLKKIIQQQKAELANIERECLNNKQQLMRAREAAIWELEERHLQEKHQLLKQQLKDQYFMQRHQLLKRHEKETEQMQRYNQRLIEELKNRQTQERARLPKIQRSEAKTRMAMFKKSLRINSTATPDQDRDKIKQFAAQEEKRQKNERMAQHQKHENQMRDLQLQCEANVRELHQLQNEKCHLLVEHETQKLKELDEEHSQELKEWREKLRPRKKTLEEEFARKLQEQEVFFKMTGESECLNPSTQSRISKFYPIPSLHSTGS

## CC(C)c1ccc(-c2nnn(CCC(=O)O)n2)cc1
HT-1080
  EC50: > 50000 nM (not active)

## COc1cc2c(cc1Nc1nc(Nc3cccc(F)c3C(N)=O)c3cc[nH]c3n1)N(C(=O)CN(C)C)CC2
[1]
  Ki: 1000 nM (active)
[2]
  Ki: > 10000 nM (inactive)
[3]
  Ki: 631 nM (active)

## CCn1nc(/C=C/c2ccccc2)nc2c(=O)n(C)c(=O)nc1-2
[4]
  IC50: 10300 nM (active)
[5]
  AC50: 12000 nM (active)
[6]
  IC50: 11700 nM (active)
[7]
  EC50: 952 nM (inconclusive)
[8]
  IC50: 2240 nM (active)
Protein RecA
  AC50: 60 nM (active)
[9]
  IC50: 106000 nM (inactive)
[10]
  AC50: < 704 nM (active)
Cysteine protease ATG4B
  IC50: 653 nM (active)

From ChEMBL document CHEMBL1201862, “PubChem BioAssay data set” (2004)
